Measured values from PMC12254355 (Nature Communications, 2025).
Ends that are not written are not given here.

Legend:
human red blood cells = settings: pH 7.4
[1] = test system: 11 clinically relevant pathogens; format: cell-based
HEK293T cells = settings: for CC50 vs HEK293T cells (source data of Figure 4a): 24 h
E. coli AIC221 = settings: AIC221, 24 h
[2] = test system: E. coli AIC222 (polymyxin resistant; colistin-resistant strain); settings: 24 h
P. aeruginosa PA14 = settings: PA14, 24 h
P. aeruginosa PAO1 = settings: PAO1, 24 h
[3] = test system: E. faecium ATCC 700221 - VRE; settings: ATCC 700221, 24 h
[4] = test system: E. faecalis ATCC 700802 - VRE; settings: ATCC 700802, 24 h
E. coli ATCC 11775 = settings: ATCC 11775, 24 h
[5] = test system: S. aureus ATCC BAA-1556 - MRSA; settings: ATCC BAA-1556, 24 h
K. pneumoniae ATCC 13883 = settings: ATCC 13883, 24 h
A. baumannii ATCC 19606 = settings: ATCC 19606, 24 h
S. aureus ATCC 12600 = settings: ATCC 12600, 24 h

Question: WLGSALKIGAKLL [UniprotKB-2] was tested. Which HC50 (human red blood cells) did it give?
Answer: 5.529e+042

Question: What about the “Antimicrobial activity against the pathogen panel (in words)” value [1] of the same sequence?
Answer: no activity

Question: And the “CC50 vs HEK293T cells” value (HEK293T cells)?
Answer: 8 µM

Question: And the “CC50 vs HEK293T cells (source data of Figure 4a)” value (HEK293T cells)?
Answer: 8.278 µM

Question: Which “Minimal Inhibitory Concentration, E. coli AIC221 (-)” value (E. coli AIC221) does the source give for “SKKQIRLYLLKYYGKKLFKKRPK [Arachnoserver-19]” here?
Answer: 32 µmol/L

Question: What about the “Minimal Inhibitory Concentration, E. coli AIC222 (-)” value [2] of the same sequence?
Answer: 32 µmol/L

Question: And the “Minimal Inhibitory Concentration, P. aeruginosa PA14 (-)” value (P. aeruginosa PA14)?
Answer: 16 µmol/L

Question: What about the HC50 (human red blood cells) of the same sequence?
Answer: 163.3

Question: What about the “Minimal Inhibitory Concentration, P. aeruginosa PAO1 (-)” value (P. aeruginosa PAO1) of the same sequence?
Answer: 16 µmol/L

Question: And the “Minimal Inhibitory Concentration, E. faecium ATCC 700221 - VRE (+)” value [3]?
Answer: 8 µmol/L

Question: What about the SIcytotoxicity (HEK293T cells) of the same sequence?
Answer: 2.1

Question: And the “CC50 vs HEK293T cells (source data of Figure 4a)” value (HEK293T cells)?
Answer: 16.68 µM

Question: LLHFSIWRSTVLRK [ISOB-4] was tested. Which HC50 (human red blood cells) did it give?
Answer: 24308.0

Question: And the “Minimal Inhibitory Concentration, E. faecium ATCC 700221 - VRE (+)” value [3]?
Answer: 16 µmol/L

Question: And the “Minimal Inhibitory Concentration, E. faecalis ATCC 700802 - VRE (+)” value [4]?
Answer: 64 µmol/L

Question: And the SIcytotoxicity (HEK293T cells)?
Answer: 9.7

Question: How did the “Minimal Inhibitory Concentration, E. coli ATCC 11775 (-)” value (E. coli ATCC 11775) turn out when RGLAKLLKIGLKSFARVLKK [Arachnoserver-12] was run?
Answer: 16 µmol/L

Question: And the “Minimal Inhibitory Concentration, E. coli AIC221 (-)” value (E. coli AIC221)?
Answer: 4 µmol/L

Question: And the “Minimal Inhibitory Concentration, S. aureus ATCC BAA-1556 - MRSA (+)” value [5]?
Answer: 64 µmol/L

Question: And the “Minimal Inhibitory Concentration, P. aeruginosa PA14 (-)” value (P. aeruginosa PA14)?
Answer: 8 µmol/L

Question: And the “Minimal Inhibitory Concentration, K. pneumoniae ATCC 13883 (-)” value (K. pneumoniae ATCC 13883)?
Answer: 32 µmol/L

Question: And the HC50 (human red blood cells)?
Answer: 40.1

Question: What about the “Minimal Inhibitory Concentration, P. aeruginosa PAO1 (-)” value (P. aeruginosa PAO1) of the same sequence?
Answer: 16 µmol/L

Question: What about the “Minimal Inhibitory Concentration, A. baumannii ATCC 19606 (-)” value (A. baumannii ATCC 19606) of the same sequence?
Answer: 32 µmol/L

Question: What about the “Minimal Inhibitory Concentration, E. faecium ATCC 700221 - VRE (+)” value [3] of the same sequence?
Answer: 8 µmol/L

Question: What about the “Minimal Inhibitory Concentration, S. aureus ATCC 12600 (+)” value (S. aureus ATCC 12600) of the same sequence?
Answer: 64 µmol/L

Question: What about the “CC50 vs HEK293T cells” value (HEK293T cells) of the same sequence?
Answer: 8 µM

Question: What about the SIcytotoxicity (HEK293T cells) of the same sequence?
Answer: 2.1

Question: What about the “CC50 vs HEK293T cells (source data of Figure 4a)” value (HEK293T cells) of the same sequence?
Answer: 8.419 µM

Question: KFLARLVFRKFILL [UniprotKB-13] was tested. Which “Minimal Inhibitory Concentration, E. coli AIC221 (-)” value (E. coli AIC221) did it give?
Answer: 8 µmol/L

Question: What about the “Minimal Inhibitory Concentration, E. coli AIC222 (-)” value [2] of the same sequence?
Answer: 32 µmol/L

Question: And the “Minimal Inhibitory Concentration, K. pneumoniae ATCC 13883 (-)” value (K. pneumoniae ATCC 13883)?
Answer: 64 µmol/L

Question: And the HC50 (human red blood cells)?
Answer: 455.9

Question: What about the “Minimal Inhibitory Concentration, E. faecium ATCC 700221 - VRE (+)” value [3] of the same sequence?
Answer: 2 µmol/L

Question: What about the “Minimal Inhibitory Concentration, E. faecalis ATCC 700802 - VRE (+)” value [4] of the same sequence?
Answer: 32 µmol/L

Question: What about the “CC50 vs HEK293T cells” value (HEK293T cells) of the same sequence?
Answer: 27 µM

Question: And the SIcytotoxicity (HEK293T cells)?
Answer: 13.4

Question: With KLSGISKVLRAIAKFFK [Arachnoserver-28] as the sequence, how does the “Minimal Inhibitory Concentration, E. coli ATCC 11775 (-)” value (E. coli ATCC 11775) read?
Answer: 64 µmol/L

Question: And the “Minimal Inhibitory Concentration, E. coli AIC221 (-)” value (E. coli AIC221)?
Answer: 32 µmol/L

Question: And the “Minimal Inhibitory Concentration, S. aureus ATCC BAA-1556 - MRSA (+)” value [5]?
Answer: 32 µmol/L

Question: And the “Minimal Inhibitory Concentration, P. aeruginosa PA14 (-)” value (P. aeruginosa PA14)?
Answer: 8 µmol/L

Question: What about the “Minimal Inhibitory Concentration, K. pneumoniae ATCC 13883 (-)” value (K. pneumoniae ATCC 13883) of the same sequence?
Answer: 32 µmol/L

Question: And the HC50 (human red blood cells)?
Answer: 38.2

Question: And the “Minimal Inhibitory Concentration, P. aeruginosa PAO1 (-)” value (P. aeruginosa PAO1)?
Answer: 32 µmol/L

Question: And the “Minimal Inhibitory Concentration, A. baumannii ATCC 19606 (-)” value (A. baumannii ATCC 19606)?
Answer: 32 µmol/L

Question: And the “Minimal Inhibitory Concentration, E. faecium ATCC 700221 - VRE (+)” value [3]?
Answer: 8 µmol/L

Question: What about the “Minimal Inhibitory Concentration, S. aureus ATCC 12600 (+)” value (S. aureus ATCC 12600) of the same sequence?
Answer: 32 µmol/L

Question: What about the “CC50 vs HEK293T cells” value (HEK293T cells) of the same sequence?
Answer: 6 µM

Question: And the SIcytotoxicity (HEK293T cells)?
Answer: 0.8

Question: What about the “CC50 vs HEK293T cells (source data of Figure 4a)” value (HEK293T cells) of the same sequence?
Answer: 6.347 µM
